# Test results reported in PubChem BioAssay AID179 (DTP/NCI, 2004).
# Activity calls are given as the source filed them.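 Rule for the calls: active = compounds giving half or more protection of infected cells from virus-caused growth loss, again on retest; inactive = the rest.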
# Test system: CEM cells HIV-1 protection, formazan growth assay
# Assay: NCI AIDS Antiviral Assay
# Conditions: for IC50: measured here: growth of uninfected CEM cells
# Outline: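 Human CEM cells, uninfected and HIV-1-infected, received five drug concentrations, and growth was read by soluble formazan assay. Compounds giving at least 50% protection were retested; reproducible 100% protection defined confirmed active.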
SMILES,EC50,IC50,outcome
Cc1cccc(CC(C)(C)C)c1NC(=O)C(=O)C(C(=O)c1ccc2ccccc2c1)C1OC(=O)c2ccccc21 (stereo not given),> 126 µM,56.2 µM,–
Cn1c(=O)[nH]c2c(c1=O)Cc1ccccc1S2(=O)=O,> 389 µM,148 µM,–
CCCC(O)S(=O)(=O)O (stereo not given),> 200 µM,> 200 µM,–
CCOC(=O)C1N=[N+](c2ccccc2)C(=O)/C1=C\n1c(=S)[nH]c2ccc([N+](=O)[O-])cc21 (stereo not given),> 200 µM,107 µM,–
O=C1c2cccn2-c2ccccc2SC1c1ccccc1 (stereo not given),> 200 µM,20.4 µM,–
Clc1ccc(Nc2nc3ccccc3nc2-c2cccs2)cc1Cl,> 14.1 µM,> 14.1 µM,–
c1ccc2c3ccn4ccc5c6ccccc6[nH]c5c4c-3nc2c1,> 10 µM,0.513 µM,–
CC(=O)OCc1c2ccccc2c(C)c2c1cc(F)c1ccccc12,–,–,inactive
CCN(CC)CCOc1ccc(/C(C#N)=C/c2ccccc2OCCN(CC)CC)cc1,> 200 µM,2.63 µM,–
O=C(Cc1ccccc1[N+](=O)[O-])C(CO)c1ccccc1[N+](=O)[O-] (stereo not given),> 110 µM,> 110 µM,–
CCCCCCCCCCCC(=O)OCCOCCOCCOCc1ccccc1,–,–,inactive
O=C(CCCl)NNC1=NCCCN1,> 200 µM,> 200 µM,–
NC(=O)N/N=C(/Cc1nc2ccc(C(=O)c3ccccc3)cc2[nH]c1=O)C(=O)Nc1ccc(C(F)(F)F)cc1[N+](=O)[O-],–,–,inactive
O=C(O)C1=CC=CC(=C(c2ccc(O)c(C(=O)O)c2)c2ccc(O)c(C(=O)O)c2)C1=O,> 380 µM,> 380 µM,–
CC(C)(CC1=CC(=O)C=CC1=O)Cc1ccccc1,> 200 µM,37.2 µM,–
C[N+](C)(C)CCC(=O)CC[N+](C)(C)C,> 8.32 µM,> 8.32 µM,–
C=C(C)C1CCC2(C(=O)O)CCC3(C)C(CCC4C5(C)CCC(O)C(C)(C)C5CCC43C)C12 (stereo not given),> 200 µM,66.1 µM,–
COC(=O)/C=C1\C(CO[Si](C)(C)C(C)(C)C)OC(n2cc(C)c(=O)[nH]c2=O)C1O[Si](C)(C)C(C)(C)C (stereo not given),> 200 µM,7.08 µM,–
O=C1N[C@@H]2C(=C[C@H](O)[C@@H](O)[C@H]2O)c2cc3c(c(O)c21)OCO3,–,–,inactive
O=C(c1ccccc1)C1C(c2ccccc2)SC(c2ccccc2)CC1(O)c1ccccc1 (stereo not given),> 151 µM,20.9 µM,–

SMILES,EC50,IC50,outcome
COc1ccc([C@@]23CCC(=O)C[C@@H]2N(C)CC3)cc1OC,> 200 µM,> 200 µM,–
c1cc(-c2csc(-c3ccsc3)c2)cs1,> 200 µM,> 200 µM,–
OC1(c2ccccc2)CC(c2ccccc2)c2ccccc2O1 (stereo not given),> 200 µM,31.6 µM,–
Cn1c(-c2ccc(/C=N/N=C(\N)N/N=C/c3ccc(-c4c[n+]5ccsc5n4C)cc3)cc2)c[n+]2ccsc12,6.03 µM,120 µM,–
CCO[C@@H]1N(C2CC(N=[N+]=[N-])C(CO)O2)C(=O)NC(=O)[C@]1(C)Cl (stereo not given in full),> 200 µM,> 200 µM,–
COC(=O)c1cc2cc(CS(=O)(=O)O)ccc2cc1O,> 200 µM,102 µM,–
O=C(O)c1ccc(C(=O)c2ccccc2)c(C(=O)O)c1,> 200 µM,> 200 µM,–
CCOC(=O)c1cc2c3c(c(C(C)=O)c(OC)c2[nH]1)N(C(=O)CC)CC3,> 200 µM,16.2 µM,–
CC1(C)CC(=O)C(CC2C(=O)c3ccccc3C2=O)C(=O)C1,> 120 µM,> 120 µM,–
CO[C@]1(c2ccc([N+](=O)[O-])cc2)Oc2ccccc2C(=O)[C@@]1(Nc1ccc(C=O)cc1)OC,> 200 µM,174 µM,–
Nc1[nH]c(=S)nc2snnc12,> 200 µM,> 200 µM,–
COc1ccccc1NC(=O)/C(=C/n1c(=S)[nH]c2ccccc21)C(C)=O,> 200 µM,> 200 µM,–
NC(=O)C(F)C(N)=O,> 200 µM,> 200 µM,–
O=C(CC1CCN(C(=O)c2ccccc2)C(Cc2c[nH]c3ccccc23)C1O)N1CCCC1 (stereo not given),> 200 µM,> 200 µM,–
c1ccc(CSc2ccc3nncc(SCc4ccccc4)c3c2)cc1,> 57.5 µM,> 57.5 µM,–
O=[N+]([O-])c1ccc(Nc2ccccc2)c2nonc12,> 87.1 µM,41.7 µM,–
Cc1c(N2C(=O)/C(=C/c3ccc(N(CCC#N)CCC#N)cc3)N=C2c2ccccc2)c(=O)n(-c2ccccc2)n1C,> 200 µM,186 µM,–
O=S(=O)(c1ccccc1)C1CN2OC1(S(=O)(=O)c1ccccc1)CC2c1ccc(Br)cc1 (stereo not given),–,–,inactive
CC(C)(C)C1CNP(=O)(c2ccccc2)OC1 (stereo not given),> 70.8 µM,> 70.8 µM,–
S=C1NC2=C(CSC/C2=C\c2ccc(Cl)cc2)C(c2ccc(Cl)cc2)N1 (stereo not given),> 200 µM,15.8 µM,–
